{"source": "patent US20200093801A1", "about": "“NEW METHODS FOR THE TREATMENT OF MULTIPLE SCLEROSIS” (Novartis AG, priority 2017, published 2020)", "test_system": "Cuprizone-Induced Demyelination in Mice", "experiment": "Cuprizone-induced demyelination in mice, MRI (169 mg/kg)", "format": "in vivo, Mice (C57BL/6J)", "settings": "169 mg/kg p.o. qd, 2-week therapeutic treatment after 5 weeks 0.2% cuprizone", "description": "Studies described below were approved by the Swiss Cantonal Veterinary Authority of Basel City, Switzerland, under the license number 2711. Mice (C57BL/6J) were commercially purchased from Charles River Laboratories, Germany or obtained from Novartis Pharma AG breeding colonies (8-9 weeks old, females). All the animals were allowed to adapt for 7 days prior the start of the experiment and housed in IVC racks (max. 4 mice/XJ Type cage). The animals were given access to food and water ad libitum. Animals were treated with cuprizone for 5 weeks. Cuprizone (Bis(cyclohexanone)oxaldihydrazone, Sigma-Aldrich) was mixed into rodent food pellets (0.2% w/w) by Provimi Kliba AG, Switzerland. Therapeutic treatment of animals after cuprizone was performed for 2 weeks on normal food with 169 mg/kg of BLZ945, qd, p.o. 10 ml/kg. BLZ945 was prepared in vehicle consisting of 0.5% methylcellulose in water and 0.1% Tween-80. Before killing 3 h after last BLZ945 dosing animals were perfused transcardially by phosphate-buffered saline (PBS), brains isolated and fixed in 4% paraformaldehyde (PFA) for 48 h at 4° C.\nMeasurements were performed with a Biospec 70/30 spectrometer (Bruker Medical Systems, Ettlingen, Germany) operating at 7 T. The operational software of the scanner was Paravision 5.1 (Bruker). Images were acquired from anesthetized, spontaneously breathing animals using a mouse brain circularly polarized coil (Bruker, Model 1P T20063V3; internal diameter 23 mm) for radiofrequency excitation and detection; neither cardiac nor respiratory triggering was applied. Following a short period of introduction in a box, animals were maintained in anesthesia with 1.5% isoflurane (Abbott, Cham, Switzerland) in oxygen, administered via a nose cone. During MRI signal acquisitions, animals were placed in prone position in a cradle made of Plexiglas, the body temperature was kept at 37±1° C. using a heating pad, and the respiration was monitored.\nA T2-weighted, two-dimensional multislice RARE (Rapid Acquisition with Relaxation Enhancement) sequence (Hennig et al., 1986) was used for determining the anatomical orientation and for evaluating signal intensities. This was followed by a two-dimensional multislice gradient-recalled FLASH (Fast Low-Angle Shot) acquisition (Haase et al., 1986) for assessment of Magnetization Transfer Ration (MTR). As both sequences had the same anatomical parameters, the choice of the regions-of-interest for evaluations was performed on the RARE images and then transferred to the FLASH images. The parameters of the acquisitions were the following: (a) RARE sequence: effective echo time 80 ms, repetition time 3280 ms, RARE factor 16, 12 averages, field of view 20×18 mm^2, matrix size 213×192, pixel size 0.094×0.094 mm^2, slice thickness 0.5 mm, 15 adjacent slices. […]", "key": {"[1]": {"settings": "normalized to vehicle control (normal food)"}}, "note": "“Also recorded” adds a separate entry of the source."}
{"smiles": "CNC(=O)c1cc(Oc2ccc3nc(N[C@@H]4CCCC[C@H]4O)sc3c2)ccn1", "note": "[BLZ945, 4-(2-((1R,2R)-2-hydroxycyclohexylamino)benzothiazol-6-yloxy)-N-methylpicolinamide]", "values": [{"measurement": "Magnetization transfer ratio (MTR) in corpus callosum", "result": "No beneficial effect"}, {"measurement": "MRI contrast in corpus callosum", "setting": "[1]", "result": "not corpus callosum; also recorded: No beneficial effect"}, {"measurement": "MRI contrast in cortex", "setting": "[1]", "result": "reduces MRI contrast; also recorded: significant beneficial effect; also recorded: almost normalized to levels of control mice"}, {"measurement": "MRI contrast in striatum", "setting": "[1]", "result": "reduces MRI contrast; also recorded: significant beneficial effect; also recorded: almost normalized to levels of control mice"}]}
